# Results as given in patent US8614193.
# Several values for one entry are separate records, joined by “and”; a condition that tells them apart may be missing. Identical values can stand only once. Like-named read-outs stand apart in the source and are kept apart here.
# [1] = disulfide bond, 15-membered ring, I2 (10 eq), CH2Cl2/MeOH 9:1, 0.43 mM
molecule,measurement,setting,value
CC(C)[C@@H]1NC(=O)[C@@H](CSC(c2ccccc2)(c2ccccc2)c2ccccc2)NC(=O)C2(CC2)NC(=O)C[C@@H](/C=C/CCSC(c2ccccc2)(c2ccccc2)c2ccccc2)OC(=O)CNC1=O,"ring closure, isolated yield","from (3S,4E)-3-hydroxy-7-(tritylthio)hept-4-enoyl-Ac3c-dCys(Trt)-Val-Gly-OH?, ester bond, 16-membered ring, MNBA/DMAP, CH2Cl2/THF, 0.77 mM, 2 steps",50%
"3-((E)-(1S,10S,21R)-7,7-Cyclopropyl-3,6,9,19,22-pentaoxo-2-oxa-12,13-dithia-5,8,20,23-tetraaza-bicyclo[8.7.6]tricos-16-en-21-yl)-propionic acid tert-butyl ester","ring closure, isolated yield","disulfide bond, 15-membered ring, I2, CH2Cl2/MeOH 9:1, 0.4 mM, 25.0 °C",65%
"3-((E)-(1S,10S,21R)-7,7-Dimethyl-3,6,9,19,22-pentaoxo-2-oxa-12,13-dithia-5,8,20,23-tetraaza-bicyclo[8.7.6]tricos-16-en-21-yl)-propionic acid tert-butyl ester","ring closure, isolated yield","disulfide bond, 15-membered ring, I2, CH2Cl2/MeOH 9:1, 0.35 mM, 25.0 °C",81%
"3-((E)-(1S,9S,20R)-5-Hydroxy-6,6-cyclopropyl-3,8,18,21-tetraoxo-2-oxa-11,12-dithia-7,19,22-triaza-bicyclo[7.7.6]docos-15-en-20-yl)-propionic acid tert-butyl ester","ring closure, isolated yield","disulfide bond, 15-membered ring, I2, CH2Cl2/MeOH 9:1, 0.39 mM",32% and 26%
O=C1CC(/C=C/CCSC(c2ccccc2)(c2ccccc2)c2ccccc2)OC(=O)CNC(=O)C2(CC2)NC(=O)[C@@H](CSC(c2ccccc2)(c2ccccc2)c2ccccc2)NC(=O)[C@@H](Cc2ccncc2)N1 (stereo in doubt),"ring closure, isolated yield","from (3S,4E)-3-hydroxy-7-(tritylthio)hept-4-enoyl-d4Pal-dCys(Trt)-Acc(1-aminocyclopropanecarbonyl)-Gly-OH, ester bond, 16-membered ring, MNBA/DMAP, CH2Cl2/THF, 0.97 mM, 2 steps",54%
CC(C)[C@H]1NC(=O)[C@@H](CSC(c2ccccc2)(c2ccccc2)c2ccccc2)NC(=O)C(C)(C)NC(=O)CC(/C=C/CCSC(c2ccccc2)(c2ccccc2)c2ccccc2)OC(=O)CNC1=O (stereo in doubt),"ring closure, isolated yield","from (3S,4E)-3-hydroxy-7-(tritylthio)hept-4-enoyl-Aib-dCys(Trt)-dVal-Gly-OH, ester bond, 16-membered ring, MNBA/DMAP, CH2Cl2/THF, 1.0 mM, 2 steps",47%
"(E)-(1S,10S)-7-Isopropyl-21,21-cyclopropyl-2-oxa-12,13-dithia-5,8,20,23-tetraaza-bicyclo[8.7.6]tricos-16-ene-3,6,9,19,22-pentaone","ring closure, isolated yield","disulfide bond, 15-membered ring, I2, CH2Cl2/MeOH 9:1",76%
CC(C)(C)OC(=O)CC[C@H]1NC(=O)C[C@@H](/C=C/CCSC(c2ccccc2)(c2ccccc2)c2ccccc2)OC(=O)CC(O)C2(CC2)NC(=O)[C@@H](CSC(c2ccccc2)(c2ccccc2)c2ccccc2)NC1=O (stereo partly drawn),"ring closure, isolated yield","from (R)-4-{(S)-1-[1-(2-Carboxy-1-hydroxy-ethyl)-cyclopropylcarbamoyl]-2-tritylsulfanyl-ethylcarbamoyl}-4-((E)-(S)-3-hydroxy-7-tritylsulfanyl-hept-4-enoylamino)-butyric acid tert-butyl ester, ester bond, 15-membered ring, MNBA/DMAP, CH2Cl2, 1.07 mM",56%
"(E)-(1S,10S)-7,7-Cyclopropyl-2-oxa-12,13-dithia-5,8,20,23-tetraaza-bicyclo[8.7.6]tricos-16-ene-3,6,9,19,22-pentaone","ring closure, isolated yield","disulfide bond, 15-membered ring, I2, CH2Cl2/MeOH 9:1, 0.2 mM",53%
"(E)-(1S,10S,21R)-7,7-Cyclopropyl-21-pyridin-3-ylmethyl-2-oxa-12,13-dithia-5,8,20,23-tetraaza-bicyclo[8.7.6]tricos-16-ene-3,6,9,19,22-pentaone","ring closure, isolated yield","disulfide bond, 15-membered ring, I2 (10 eq), CH2Cl2/MeOH 9:1, 0.35 mM",24%
O=C1C[C@@H](/C=C/CCSC(c2ccccc2)(c2ccccc2)c2ccccc2)OC(=O)CNC(=O)C2(CC2)NC(=O)[C@@H](CSC(c2ccccc2)(c2ccccc2)c2ccccc2)NC(=O)[C@@H](Cc2cccc(Cl)c2)N1,"ring closure, isolated yield","from (3S,4E)-3-hydroxy-7-(tritylthio)hept-4-enoyl-dPhe(3-Cl)-dCys(Trt)-Acc(1-aminocyclopropanecarbonyl)-Gly-OH, ester bond, 16-membered ring, MNBA/DMAP, CH2Cl2, 1.06 mM",40%
"3-((E)-(1S,10S,21R)-7-cyclobutyl-3,6,9,19,22-pentaoxo-2-oxa-12,13-dithia-5,8,20,23-tetraaza-bicyclo[8.7.6]tricos-16-en-21-yl)-propionic acid tert-butyl ester","ring closure, isolated yield","disulfide bond, 15-membered ring, I2, CH2Cl2/MeOH 9:1, 0.46 mM",93%
CC(C)(C)OC(=O)CC[C@H]1NC(=O)CC(/C=C/CCSC(c2ccccc2)(c2ccccc2)c2ccccc2)OC(=O)CNC(=O)C2(CCC2)NC(=O)C(CSC(c2ccccc2)(c2ccccc2)c2ccccc2)NC1=O (stereo in doubt),"ring closure, isolated yield","from (3S,4E)-3-hydroxy-7-(tritylthio)hept-4-enoyl-dGlu(tBu)-dCys(Trt)-Ac4c-Gly-OH, ester bond, 16-membered ring, MNBA/DMAP, CH2Cl2/THF, 1.13 mM, 2 steps",51%
O=C1C[C@@H](/C=C/CCSC(c2ccccc2)(c2ccccc2)c2ccccc2)OC(=O)CNC(=O)C2(CC2)NC(=O)[C@@H](CSC(c2ccccc2)(c2ccccc2)c2ccccc2)NC(=O)[C@@H](Cc2cccnc2)N1,"ring closure, isolated yield","from (3S,4E)-3-hydroxy-7-(tritylthio)hept-4-enoyl-d3Pal-dCys(Trt)-Acc(1-aminocyclopropanecarbonyl)-Gly-OH?, ester bond, 16-membered ring, MNBA/DMAP, CH2Cl2/THF, 0.67 mM, 2 steps",96%
CC(C)(C)OC(=O)CC[C@H]1NC(=O)C[C@@H](/C=C/CCSC(c2ccccc2)(c2ccccc2)c2ccccc2)OC(=O)CNC(=O)C(C)(C)NC(=O)[C@@H](CSC(c2ccccc2)(c2ccccc2)c2ccccc2)NC1=O,"ring closure, isolated yield","from (E)-(S)-3-hydroxy-7-tritylsulfanyl-hept-4-enoyl-dGlu(OtBu)-dCys(Trt)-Aib-Gly-OH, ester bond, 16-membered ring, MNBA/DMAP, CH2Cl2/THF, 0.94 mM, 2 steps",63%
O=C1C[C@@H](/C=C/CCSC(c2ccccc2)(c2ccccc2)c2ccccc2)OC(=O)CNC(=O)C2(CC2)NC(=O)[C@@H](CSC(c2ccccc2)(c2ccccc2)c2ccccc2)NC(=O)CN1,"ring closure, isolated yield","from (3S,4E)-3-hydroxy-7-(tritylthio)hept-4-enoyl-Gly-dCys(Trt)-Ac3c-Gly-OH, ester bond, 16-membered ring, MNBA/DMAP, CH2Cl2, 0.85 mM",45%
O=C1C[C@@H](/C=C/CCSC(c2ccccc2)(c2ccccc2)c2ccccc2)OC(=O)CNC(=O)C2(CC2)NC(=O)[C@@H](CSC(c2ccccc2)(c2ccccc2)c2ccccc2)NC(=O)[C@@H](Cc2ccccc2)N1,"ring closure, isolated yield","from (3S,4E)-3-hydroxy-7-(tritylthio)hept-4-enoyl-dPhe-dCys(Trt)-Acc(1-aminocyclopropanecarbonyl)-Gly-OH, ester bond, 16-membered ring, MNBA/DMAP, CH2Cl2/THF, 0.83 mM, 2 steps",58%
CC(C)(C)OC(=O)CC[C@H]1NC(=O)C[C@@H](/C=C/CCSC(c2ccccc2)(c2ccccc2)c2ccccc2)OC(=O)CNC(=O)C2(CC2)NC(=O)[C@@H](CSC(c2ccccc2)(c2ccccc2)c2ccccc2)NC1=O,"ring closure, isolated yield","from (E)-(S)-3-hydroxy-7-tritylsulfanyl-hept-4-enoyl-dGlu(OtBu)-dCys(Trt)-Acc-Gly-OH, ester bond, 16-membered ring, MNBA/DMAP, CH2Cl2/THF, 0.85 mM, 25.0 °C, 2 steps",29%
"(E)-(1S,10S,21R)-7-cyclopropyl-21-pyridin-4-ylmethyl-2-oxa-12,13-dithia-5,8,20,23-tetraaza-bicyclo[8.7.6]tricos-16-ene-3,6,9,19,22-pentaone","ring closure, isolated yield",[1],2%
"(E)-(1S,10S,21R)-21-(3-Chloro-benzyl)-7,7-cyclopropyl-2-oxa-12,13-dithia-5,8,20,23-tetraaza-bicyclo[8.7.6]tricos-16-ene-3,6,9,19,22-pentaone","ring closure, isolated yield","disulfide bond, 15-membered ring, I2, CH2Cl2/MeOH 9:1, 0.19 mM",32%
"(E)-(1S,10S,21R)-21-Benzyl-7,7-cyclopropyl-2-oxa-12,13-dithia-5,8,20,23-tetraaza-bicyclo[8.7.6]tricos-16-ene-3,6,9,19,22-pentaone","ring closure, isolated yield",[1],81%
